According to patent US20210024567A1, “MODIFIED CYCLIC DINUCLEOTIDE COMPOUNDS” (BOEHRINGER INGELHEIM INTERNATIONAL GMBH, priority 2018, published 2021):

Legend:
[1] = target: Human STING (hSTING, residues 155-341, wild-type sequence) (Homo sapiens, UniProt Q86WV6, H232R); test: hSTING binding by differential scanning fluorimetry (DSF); conditions: 100 μM test compound, 3 μM target protein, at least two Tm measurements averaged
Description: 3) 2 μl of this protein-dye-mixture (25×SYPRO Orange and 15 μM Protein) was added to 8 μl compound solution. Final volume was 10 μL. 4) Certain well positions were used as negative control. 5) The plates were prepared for duplicate measurement and centrifuged for 2 min at 1000 g. 6) In the measurement, 160 cycles of 0.5° C. were used (temperature ramp 15 s/cycle, 15° C. to 95° C.). Data analysis: The dissociation curves were processed in Bio-Rad CFX Manager. Peak type was set to “negative. At least two Tm measurements were averaged.

[2] = target: T1, human STING protein in THP1-Blue ISG cells (Homo sapiens, UniProt Q86WV6, G230A/H232R/R293Q/R71H); test: In vitro cytokine induction, THP1-Blue ISG reporter cell assay (IRF-inducible SEAP); type: cell-based; conditions: 24 hours incubation, SEAP OD at 620 nm
T1 construct: endogenous STING levels form the parental, unmodified THP1-Blue ISG cell lines; endogenous in cells; host or cells: THP1-Blue ISG cells
T1 sequence (Q86WV6 whole entry R71H/G230A/H232R/R293Q): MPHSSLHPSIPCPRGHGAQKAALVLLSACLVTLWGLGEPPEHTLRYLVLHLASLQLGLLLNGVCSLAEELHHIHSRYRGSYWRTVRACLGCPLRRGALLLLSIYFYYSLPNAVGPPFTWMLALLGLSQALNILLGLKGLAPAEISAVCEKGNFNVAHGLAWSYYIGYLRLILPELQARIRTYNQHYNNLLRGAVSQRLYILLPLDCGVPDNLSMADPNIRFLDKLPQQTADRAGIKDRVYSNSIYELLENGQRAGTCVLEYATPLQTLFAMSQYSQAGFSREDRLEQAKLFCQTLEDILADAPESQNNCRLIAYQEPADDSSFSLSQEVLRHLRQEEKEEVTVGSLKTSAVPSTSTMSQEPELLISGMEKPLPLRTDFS
Text: Activation of the STING protein expressed in THP1 cells results in an increase of interferon production. By the stable integration of an interferon regulatory factor (IRF)-inducible SEAP (secreted embryonic alkaline phosphatase) reporter construct the functional interferon signaling pathway can be monitored. Using Invivogen's QUANTI-Blue™ colorimetric enzyme assay and a suitable optical density (OD) reader the activity of SEAP can be detected and quantified. This technique could be used to characterize pharmacological modification of the STING protein.
Measurements of SEAP activity were performed in THP1-Blue ISG cells stably expressing the human STING protein and the IRF-inducible SEAP reporter construct. Cells were cultivated for expansion in RPMI1640 medium with 10% fetal calf serum, 50 μg/ml Penicillin-Streptomycin, 100 μg/ml Zeocin, and 100 μg/ml Normocin in a 37°, 95% humidity and 5% CO2 incubator. Assay-ready cells were stored as frozen stocks.
In preparation for the assay, the cells were thawed in Zeocin-/Normocin-free medium and were distributed into the assay plates with a density of 15000 cells/15 μL per well. […]
At the day of the assay, 75 μl per well of Quanti-Blue reagent was added to all wells of the plate and the plate was incubated another 30 minutes at 37° C. The OD at 620 nm was measured on the EnVision reader (PerkinElmer). […]

hSTING HAQ = target: T2, hSTING HAQ (Homo sapiens, UniProt Q86WV6, G230A/H232R/R293Q/R71H); test: THP1-Blue ISG hSTING KO reporter cells re-expressing hSTING HAQ; type: cell-based; conditions: HAQ variant cell line
T2 construct: expressed in transfected cells; host or cells: THP1-Blue ISG hSTING KO clone, retroviral MSCV-ires-GFP-Blasti
T2 sequence (Q86WV6 whole entry R71H/G230A/H232R/R293Q): as above
Text: (§1) Several single nucleotide polymorphisms have been identified in the human STING gene that may affect the response to cyclic dinucleotides. To determine the activity of compounds of the invention, THP1-Blue ISG reporter cell lines expressing the different human STING variants have been generated. To do so, the endogenous human STING was first deleted using the CRISPR/CAS9 system: THP1-Blue ISG cells were electroporated with ALL-IN-ONE CRISPR plasmids targeting the STING gene (purchased from Sigma encoding the gRNA and GFP as a reporter gene for successful transduction). GFP positive cells then were sorted 24 h post transfection and expanded. Cells were then dispersed in semisolid methocel medium to allow single cell clone isolations. Clones were then screened for cGAMP responsiveness using the Quanti-blue reporter assay. Non-responsive clones were subsequently analysed for STING loss by western blotting and sequencing of the STING locus.
(§2) For the overexpression of the human STING variants, a confirmed THP1-Blue ISG hSTING KO clone was transduced with individual retroviral plasmids (MSCV-ires-GFP-Blasti) encoding the allelic variants of hSTING (WT, HAQ, R232H, AQ and R293Q), respectively. Transduced cells were sorted for different levels of GFP fluorescence and STING allele expression was analysed by western blot.

hSTING R293Q = target: T3, hSTING R293Q (Homo sapiens, UniProt Q86WV6, H232R/R293Q); test: THP1-Blue ISG hSTING KO reporter cells re-expressing hSTING R293Q; type: cell-based; conditions: R293Q variant cell line
T3 construct: expressed in transfected cells; host or cells: THP1-Blue ISG hSTING KO clone, retroviral MSCV-ires-GFP-Blasti
T3 sequence (Q86WV6 whole entry H232R/R293Q): as the sequence (Q86WV6 whole entry R71H/G230A/H232R/R293Q) above, with H71R, A230G counted along it
Text: as §1, §2

hSTING WT = target: T4, hSTING WT (Homo sapiens, UniProt Q86WV6, H232R); test: THP1-Blue ISG hSTING KO reporter cells re-expressing hSTING WT; type: cell-based; conditions: WT variant cell line
T4 construct: expressed in transfected cells; host or cells: THP1-Blue ISG hSTING KO clone, retroviral MSCV-ires-GFP-Blasti
T4 sequence (Q86WV6 whole entry H232R): as the sequence (Q86WV6 whole entry R71H/G230A/H232R/R293Q) above, with H71R, A230G, Q293R counted along it
Text: as §1, §2

hSTING R232H = target: T5, hSTING R232H (Homo sapiens, UniProt Q86WV6); test: THP1-Blue ISG hSTING KO reporter cells re-expressing hSTING R232H; type: cell-based; conditions: R232H variant cell line
T5 construct: expressed in transfected cells; host or cells: THP1-Blue ISG hSTING KO clone, retroviral MSCV-ires-GFP-Blasti
T5 sequence (Q86WV6 whole entry, stated change not applied): as the sequence (Q86WV6 whole entry R71H/G230A/H232R/R293Q) above, with H71R, A230G, R232H, Q293R counted along it
Text: as §1, §2

hSTING AQ = target: T6, hSTING AQ (Homo sapiens, UniProt Q86WV6, G230A/H232R/R293Q); test: THP1-Blue ISG hSTING KO reporter cells re-expressing hSTING AQ; type: cell-based; conditions: AQ variant cell line
T6 construct: expressed in transfected cells; host or cells: THP1-Blue ISG hSTING KO clone, retroviral MSCV-ires-GFP-Blasti
T6 sequence (Q86WV6 whole entry G230A/H232R/R293Q): as the sequence (Q86WV6 whole entry R71H/G230A/H232R/R293Q) above, with H71R counted along it
Text: as §1, §2

Chain of Human STING (hSTING, residues 155-341, wild-type sequence) (Q86WV6 155-341 H232R limits assumed): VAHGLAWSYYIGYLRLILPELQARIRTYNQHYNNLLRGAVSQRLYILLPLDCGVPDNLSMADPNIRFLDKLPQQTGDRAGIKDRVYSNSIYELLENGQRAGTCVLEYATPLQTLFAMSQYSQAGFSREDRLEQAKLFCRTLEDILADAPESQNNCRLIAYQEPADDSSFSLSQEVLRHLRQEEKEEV

With `Nc1ncnc2c1ncn2[C@@H]1O[C@]23CO[C@@H]1[C@@H]2OP(=O)(S)OC[C@H]1O[C@@H](n2cnc4cncnc42)[C@H](F)[C@@H]1OP(=O)(S)OC3` (single isomer, unassigned) [Example 1.2, Cyclic (2′-F-2′-deoxynebularine-(3′→5′)-phosphorothioate-LNA-adenosine-(3′→5′)-phosphorothioate)] the “hSTING Tm shift” value [1] was 19.8 °C and the EC50 [2] was 160 nM.
Work on `Nc1ncnc2c1ncn2[C@@H]1O[C@]23CO[C@@H]1[C@@H]2OP(=O)(S)OC[C@H]1O[C@@H](n2cnc4cncnc42)[C@H](F)[C@@H]1OP(=O)(S)OC3` (single isomer, unassigned) [Example 1.1, Cyclic (2′-F-2′-deoxynebularine-(3′→5′)-phosphorothioate-LNA-adenosine-(3′→5′)-phosphorothioate)] yielded an EC50 (hSTING HAQ) of no more than 1000 nM, an EC50 (hSTING R293Q) of no more than 1000 nM and an EC50 (hSTING WT) of no more than 1000 nM. For the same compound, the EC50 (hSTING R232H) was no more than 1000 nM, the EC50 (hSTING AQ) was no more than 1000 nM and the ΔTm at 100 µM ([1]; read-out: hSTING Tm shift) was 28.8 °C. It also gave an EC50 [2] of 250 nM.
